# Reference: ChEMBL document CHEMBL1629647, “Preclinical evaluation of GS-9160, a novel inhibitor of human immunodeficiency virus type 1 integrase” (Antimicrob Agents Chemother, 2009)
# What was measured:
# [1] = in vitro; conditions: human, MT4 cells
# Description: Selectivity index, ratio of CC50 for human MT4 cells to EC50 for HIV1 3B in presence of 10% FBS
# [2] = system: Human immunodeficiency virus 1; assay: Selectivity ratio of EC50 for antiviral activity against EFV-resistant HIV1 selected after 7 passages to EC50 for antiviral activity against wild-type HIV1 3B; type: functional
# [3] = system: Human immunodeficiency virus 1; assay: Antiviral activity against 0.001 MOI HIV1 BAL infected in human T lymphocyte cells by p24 antigen ELISA in presence of 10% FBS; type: functional, organism-based; conditions: Human immunodeficiency virus 1, BAL
# [4] = system: Human immunodeficiency virus 1; assay: Selectivity ratio of EC50 for antiviral activity against HIV1 harboring E92V mutation in catalytic core domain of integrase to EC50 for antiviral activity against wild-type HIV1 3B; type: functional
# [5] = system: Human immunodeficiency virus 1; assay: Selectivity ratio of EC50 for antiviral activity against HIV1 harboring E138K mutation in catalytic core domain of integrase to EC50 for antiviral activity against wild-type HIV1 3B; type: functional
# [6] = system: Human immunodeficiency virus 1; assay: Antiviral activity against HIV1 3B infected in human MT-2 cells by two fold dilution method in presence of 10% FBS; type: functional, organism-based; conditions: Human immunodeficiency virus 1, 3B, MT2
# [7] = system: Human immunodeficiency virus 1; assay: Selectivity ratio of EC50 for antiviral activity against HIV1 harboring G140S and Q148H mutation in catalytic core domain of integrase to EC50 for antiviral activity against wild-type HIV1 3B; type: functional
# [8] = Cytotoxicity against human uninfected MT2 cells by three fold dilution method in presence of 10% FBS
# [9] = target: Human immunodeficiency virus type 1 integrase (Human immunodeficiency virus 1, UniProt Q7ZJM1); assay: Inhibition of HIV1 integrase strand transfer activity
# Chain of Human immunodeficiency virus type 1 integrase (Q7ZJM1 whole entry): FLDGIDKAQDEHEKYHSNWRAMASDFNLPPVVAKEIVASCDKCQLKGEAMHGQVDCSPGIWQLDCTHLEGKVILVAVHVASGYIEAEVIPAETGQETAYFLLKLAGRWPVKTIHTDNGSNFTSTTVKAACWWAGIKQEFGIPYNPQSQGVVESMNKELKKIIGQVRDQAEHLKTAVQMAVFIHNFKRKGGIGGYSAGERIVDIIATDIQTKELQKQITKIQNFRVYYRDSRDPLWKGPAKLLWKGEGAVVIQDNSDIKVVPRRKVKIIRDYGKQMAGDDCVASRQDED
# [10] = system: Human immunodeficiency virus 1; assay: Selectivity ratio of EC50 for antiviral activity against 3TC-resistant HIV1 selected after 8 passages to EC50 for antiviral activity against wild-type HIV1 3B; type: functional
# [11] = system: Human immunodeficiency virus 1; assay: Antiviral activity against HIV1 infected in SupT1 cells assessed as accumulation of late RT products after 12 hrs; type: functional, organism-based; conditions: Human immunodeficiency virus 1, SUP-T1, 12 h
# [12] = system: Human immunodeficiency virus 1; assay: Selectivity ratio of EC50 for antiviral activity against HIV1 harboring E138K and Q148K mutation in catalytic core domain of integrase to EC50 for antiviral activity against wild-type HIV1 3B; type: functional
# [13] = system: Human immunodeficiency virus 1; assay: Selectivity ratio of EC50 for antiviral activity against NRTI-resistant HIV1 harboring RT-6TAMs mutant gene to EC50 for antiviral activity against wild-type HIV1 3B; type: functional
# [14] = system: Human immunodeficiency virus 1; assay: Selectivity ratio of EC50 for antiviral activity against NRTI-resistant HIV1 harboring RTM184V mutant gene to EC50 for antiviral activity against wild-type HIV1 3B; type: functional
# [15] = system: Human immunodeficiency virus 1; assay: Antiviral activity against 0.02 MOI HIV1 3B infected in human MT-2 cells by two fold dilution method in presence of 100% human serum; type: functional, organism-based; conditions: Human immunodeficiency virus 1, 3B, MT2
# [16] = system: Human immunodeficiency virus 1; assay: Selectivity ratio of EC50 for antiviral activity against HIV1 harboring T66I mutation in catalytic core domain of integrase to EC50 for antiviral activity against wild-type HIV1 3B; type: functional
# [17] = system: Human immunodeficiency virus 1; assay: Selectivity ratio of EC50 for antiviral activity against APV-resistant HIV1 selected after 4 passages to EC50 for antiviral activity against wild-type HIV1 3B; type: functional
# [18] = system: Human immunodeficiency virus 1; assay: Selectivity ratio of EC50 for antiviral activity against PI-resistant HIV1 harboring […], V82A and L90M mutant gene to EC50 for antiviral activity against wild-type HIV1 3B; type: functional
# [19] = system: Human immunodeficiency virus 1; assay: Selectivity ratio of EC50 for antiviral activity against GS-9160-resistant HIV1 selected after 9 passages to EC50 for antiviral activity against wild-type HIV1 3B; type: functional
# [20] = system: Human immunodeficiency virus 1; assay: Selectivity ratio of EC50 for antiviral activity against HIV1 harboring E92Q mutation in catalytic core domain of integrase to EC50 for antiviral activity against wild-type HIV1 3B; type: functional
# [21] = system: Human immunodeficiency virus 1; assay: Selectivity ratio of EC50 for antiviral activity against 3TC-resistant HIV1 selected after 4 passages to EC50 for antiviral activity against wild-type HIV1 3B; type: functional
# [22] = Cytotoxicity against human SupT1 cells infected with HIV1 3B; type: cell-based, SUP-T1; conditions: SupT1 cells infected with HIV-1 3B
# [23] = system: Human immunodeficiency virus 1; assay: Selectivity ratio of EC50 for antiviral activity against GS-9160-resistant HIV1 selected after 6 passages to EC50 for antiviral activity against wild-type HIV1 3B; type: functional
# [24] = system: Human immunodeficiency virus 1; assay: Selectivity ratio of EC50 for antiviral activity against GS-9160-resistant HIV1 selected after 5 passages to EC50 for antiviral activity against wild-type HIV1 3B; type: functional
# [25] = system: Human immunodeficiency virus 1; assay: Selectivity ratio of EC50 for antiviral activity against HIV1 harboring N155H mutation in catalytic core domain of integrase to EC50 for antiviral activity against wild-type HIV1 3B; type: functional
# [26] = system: Human immunodeficiency virus 1; assay: Antiviral activity against HIV1 3B infected in human MT-2 cells by two fold dilution method in presence of 10% FBS, HSA and alpha1-AGP; type: functional, organism-based; conditions: Human immunodeficiency virus 1, 3B, MT2
# [27] = Cytotoxicity against human MT4 cells infected with HIV1 3B by three fold dilution method in presence of 10% FBS; type: cell-based; conditions: MT4 cells infected with HIV-1 3B
# [28] = Cytotoxicity against human T lymphocyte cells uninfected by XTT method in presence of 10% FBS
# [29] = system: Human immunodeficiency virus 1; assay: Antiviral activity against HIV1 3B infected in SupT1 cells assessed as fold increase in viral 2-LTR circles accumulation after […] postinfection by TaqMan real-time PCR; type: functional, SUP-T1
# [30] = system: Human immunodeficiency virus 1; assay: Antiviral activity against 0.01 MOI HIV1 3B infected in human MT-2 cells by two fold dilution method in presence of 100% human serum; type: functional, organism-based; conditions: Human immunodeficiency virus 1, 3B, MT2
# [31] = Selectivity index, ratio of CC50 for human T lymphocyte cells to EC50 for HIV1 BAL in presence of 10% FBS; type: toxicity, cell-based
# [32] = system: Human immunodeficiency virus 1; assay: Selectivity ratio of EC50 for antiviral activity against HIV1 harboring L74M mutation in catalytic core domain of integrase to EC50 for antiviral activity against wild-type HIV1 3B; type: functional
# [33] = system: Human immunodeficiency virus 1; assay: Selectivity ratio of EC50 for antiviral activity against HIV1 harboring N155S mutation in catalytic core domain of integrase to EC50 for antiviral activity against wild-type HIV1 3B; type: functional
# [34] = system: Human immunodeficiency virus 1; assay: Selectivity ratio of EC50 for antiviral activity against NRTI-resistant HIV1 harboring RTK65R mutant gene to EC50 for antiviral activity against wild-type HIV1 3B; type: functional
# [35] = system: Human immunodeficiency virus 1; assay: Selectivity ratio of EC50 for antiviral activity against NNRTI-resistant HIV1 harboring RTY181C mutant gene to EC50 for antiviral activity against wild-type HIV1 3B; type: functional
# [36] = system: Human immunodeficiency virus 1; assay: Selectivity ratio of EC50 for antiviral activity against EFV-resistant HIV1 selected after 3 passages to EC50 for antiviral activity against wild-type HIV1 3B; type: functional
# [37] = system: Human immunodeficiency virus 1; assay: Antiviral activity against HIV1 infected in SupT1 cells assessed as accumulation of integrated junction products after 48 hrs by Alu-PCR assay; type: functional, organism-based; conditions: Human immunodeficiency virus 1, SUP-T1, 48 h
# [38] = system: Human immunodeficiency virus 1; assay: Selectivity ratio of EC50 for antiviral activity against PI-resistant HIV1 harboring […], L90M mutant gene to EC50 for antiviral activity against wild-type HIV1 3B; type: functional
# [39] = system: Human immunodeficiency virus 1; assay: Selectivity ratio of EC50 for antiviral activity against HIV1 harboring Q148K mutation in catalytic core domain of integrase to EC50 for antiviral activity against wild-type HIV1 3B; type: functional
SMILES,selectivity ratio [1],Ratio EC50 [2],EC50 [3],Ratio EC50 [4],Ratio EC50 [5],EC50 [6],Ratio EC50 [7],CC50 [8],IC50 [9],Ratio EC50 [10],EC50 [11],Ratio EC50 [12],Ratio EC50 [13],Ratio EC50 [14],EC50 [15],Ratio EC50 [16],Ratio EC50 [17],Ratio EC50 [18],Ratio EC50 [19],Ratio EC50 [20],also measured
O=C(NCc1ccc(F)cc1)c1nc(N2CCCCS2(=O)=O)c2cccnc2c1O,400,1.3,3 nM,8,8,2 nM,478,3000 nM,44 nM,0.8,> 1000 nM,314,1,1,96 nM,2,1.9,1,49,42,Ratio EC50 [21]: 1.3; CC50 [22]: 1900 nM; Ratio EC50 [23]: 29; Ratio EC50 [24]: 2.7; Ratio EC50 [25]: 65; EC50 [26]: 43 nM; CC50 [27]: 1600 nM; CC50 [28]: 2100 nM; fold change (FC) [29]: 3; EC50 [30]: 41 nM; selectivity ratio [31]: 700; Ratio EC50 [32]: 1; Ratio EC50 [33]: 21; Ratio EC50 [34]: 1; Ratio EC50 [35]: 1; Ratio EC50 [36]: 1.2; EC50 [37]: 1.3 nM; Ratio EC50 [38]: 1; Ratio EC50 [39]: 35
CN(c1c2c(c(O)c3ncccc13)C(=O)N(Cc1ccc(F)cc1)C2)S(C)(=O)=O,457,0.6,1.5 nM,12,12,2.1 nM,1132,4000 nM,28 nM,0.5,> 1000 nM,250,2,1,19 nM,1,1.6,1,51,32,Ratio EC50 [21]: 0.5; CC50 [22]: 600 nM; Ratio EC50 [23]: 26; Ratio EC50 [24]: 4.3; Ratio EC50 [25]: 50; EC50 [26]: 15 nM; CC50 [27]: 320 nM; CC50 [28]: 4000 nM; fold change (FC) [29]: 1.9; EC50 [30]: 12 nM; selectivity ratio [31]: 2670; Ratio EC50 [32]: 1; Ratio EC50 [33]: 12; Ratio EC50 [34]: 1; Ratio EC50 [35]: 1; Ratio EC50 [36]: 0.9; EC50 [37]: 0.9 nM; Ratio EC50 [38]: 1; Ratio EC50 [39]: 23
